The values below come from US5093325A, “Combination preparation having antithrombotic action” (priority 1989, dated 1992).

For assay [1], the system named is human platelets. The assay can be described thus: Inhibition of collagen-stimulated aggregation of human platelets in platelet-rich plasma (aggregometer). Format: cell-based. As for the experimental part:
(§1) Human platelet-rich plasma (PRP) is incubated in an aggregometer at 37° C. and mixed with […] of collagen to cause aggregation. […] The course of the aggregation is recorded in the aggregometer. 10 minutes after collagen addition, the samples are centrifuged at 3000 rpm and the supernatant is tested with an enzyme linked immunosorbent assay (ELISA) for its content of plasminogen activator inhibitor-1 (PAI-1) and with a radioimmunoassay (RIA) for the content of platelet-derived growth factor (PDGF).

Assay [2] deals with thrombus formation in carotid arteries. The experiment in a line: Thrombus formation in carotid arteries previously traumatized by pressure + cold (thrombus hemoglobin content). Format: in vivo, guinea pig. As for the experimental part: A 2-cm-long piece of the external left carotid artery on an anesthetized guinea pig is carefully exposed and drawn over a small metal plate. Then the vascular wall is weighted down over a length of 1 cm for 3 minutes with a steel stamp weighing 200 g, cooled to -15° C. In this way, a massive local vascular trauma is caused on a large artery and a red thrombus develops on the traumatized site. Three hours after the trauma the traumatized segment and an equally long piece of the contralateral artery are removed, asked and put in hemoglobin test reagent. The hemoglobin contents of the two segments are determined 24 hours later. The net hemoglobin content of the red thrombus as the measurement of the thrombus size is calculated from the difference of these hemoglobin contents.

Assay [3] relates to collagen-stimulated blood platelets. The experiment in a line: Inhibition of collagen-induced thrombocytopenia in anesthetized guinea pigs. Type of assay: in vivo, guinea pig. The note with it: for % Thrombocytopenia Inhibition: average ± SEM. An excerpt: Reversible thrombocytopenias are produced on anesthetized guinea pigs by injection of collagen ([…] i.v.). The cause of these thrombocytopenias is an aggregate formation of the collagen-stimulated blood platelets and the embolization of these platelet aggregates in the lungs, where they then lodge and thus cause the observed drops of the platelet count in the blood (thrombocytopenias).

The test system of assay [4] is PAI-1 release of human platelets. The experiment in a line: Inhibition of PAI-1 release from collagen-stimulated human platelets (ELISA). Format: cell-based. The note with it: Platelet, N = 6, % of control. How it is done:
as §1
In general terms: In an ELISA, binding on a coated surface is turned into a signal by an enzyme label.

In assay [5] the test system is occluding platelet thrombi on mesenteric arterioles. The experiment in a line: Thrombogenic ADP concentration for occluding platelet thrombi on previously traumatized mesenteric arterioles. Type of assay: in vivo, guinea pig. The note with it: for Thrombogenic ADP Concentration, Increase: N 5, average. How it is done:
A mesenteric loop is placed on an anesthetized guinea pig and is superfused with a moderately heated solution of common salt. Under intravital microscopic control the vascular wall of a mesenteric arteriole (020-50 m) is traumatized by a series of electric pulses. By subsequent local application of increasing concentrations of ADP (adenosine diphosphate) solution a thrombogenic ADP concentration is determined, at which an occluding platelet thrombus forms on the pretraumatized site of the arteriole. This thrombogenic ADP concentration produces vascular-specific and reproducible thrombi in the respective arteriole.

The test system of assay [6] is PDGF release of human platelets. The experiment in a line: Inhibition of PDGF release from collagen-stimulated human platelets (RIA). The note with it: Platelet, N = 6, % of control. Type of assay: cell-based. As for the experimental part:
as §1

As for `CCC#CC[C@H](C)[C@H](O)C#C[C@@H]1[C@H]2C/C(=C/COCC(=O)O)C[C@H]2C[C@H]1O` [Cicaprost], the “platelet aggregation inhibition, in words” value in assay [1] (Cicaprost 10^-10 or 10^-9 M, separately) is on record as “ineffective”. For the same compound, the inhibition (as a rule, how much of the control response was suppressed) at 0.1 µM came to 95 ± 3% in assay [1] (Homo sapiens, Platelet, Cicaprost 10^-7 M, N = 6, % of control); 80 ± 5% in assay [4] (Cicaprost 10^-7 M); 81 ± 1% in assay [6] (Cicaprost 10^-7 M). Moreover, the inhibition at 0.01 µM was found to be 95 ± 4% in assay [1] (Homo sapiens, Platelet, Cicaprost 10^-8 M, N = 6, % of control); 72 ± 3% in assay [4] (Cicaprost 10^-8 M); 81 ± 3% in assay [6] (Cicaprost 10^-8 M). Further, the inhibition at 0.001 µM in assay [1] (Homo sapiens, Platelet, Cicaprost 10^-9 M, N = 6, % of control) is 0%; in assay [4] (Cicaprost 10^-9 M) it was 0%; in assay [6] (Cicaprost 10^-9 M) it was 3 ± 3%. In addition, the inhibition at 0.0001 µM in assay [1] (Homo sapiens, Platelet, Cicaprost 10^-10 M, N = 6, % of control) was found to be 4 ± 3%; in assay [4] (Cicaprost 10^-10 M) it was 0%; in assay [6] (Cicaprost 10^-10 M), 1 ± 2%. Further, the Thrombus Hb content, Median came to 12.4 µmol in assay [2] (Cicaprost 0.3 ng/kg/min, N 10, Q 25/Q 75 8.0/25.0, n.s., control 8.6); 1.9 µmol in assay [2] (Cicaprost 1.0 ng/kg/min, N 10, Q 25/Q 75 0.2/5.8, significant vs control 8.6); 0 µmol in assay [2] (Cicaprost 3.0 ng/kg/min, N 11, Q 25/Q 75 -0.4/0.7, significant vs control 8.6). The “effect on thrombus formation in the carotid artery, in words” value in assay [2] (dosage printed C.3 ng/kg/min i.v.) was “significantly effective”. In addition, the “thrombocytopenia inhibition, in words” value in assay [3] (Cicaprost 1 ng/kg/min i.v., separately) is “ineffective”. Further, the “% Thrombocytopenia Inhibition” value in assay [3] (Cicaprost 1 ng/kg/min i.v., N 6, n.s.) came to 8 ± 5%; in assay [3] (Cicaprost 3 ng/kg/min, N 6, p less than 0.05 vs control) it was 36 ± 4%. In addition, the “higher dose of Cicaprost alone needed for the effect of the combination” value in assay [3] (vs 1 ng/kg/min i.v. in combination with ASA 0.5 mg/kg) is “three-fold higher dose”. In addition, the “higher dosage of Cicaprost alone needed for the antithrombotic action of the combination” value in assay [5] (100 ng/kg/min i.v. alone vs 10 ng/kg/min in combination) is reported as 10 fold. For the same compound, the “change of thrombogenic ADP concentration, in words” value in assay [5] (Cicaprost 10 ng/kg/min i.v.) is reported as “not significantly effective”. In addition, the “Thrombogenic ADP Concentration, Increase” value in assay [5] (Cicaprost 10 ng/kg/min, SEM ±0.39, n.s.) was 0.36; in assay [5] (Cicaprost 30 ng/kg/min, SEM ±0.20, p less than 0.05 vs control) it was 1.02; in assay [5] (Cicaprost 100 ng/kg/min, SEM ±0.20, p less than 0.05 vs control), 1.32. The “increase of the thrombogenic ADP concentration” value in assay [5] (Cicaprost 100 ng/kg/min i.v., N=5) came to 1.32±0.2 log M.
On to `CC(=O)Oc1ccccc1C(=O)O` [ASA, acetylsalicylic acid], for which the “effect on thrombus formation in the carotid artery, in words” value in assay [2] (ASA 5 mg/kg i.v.) is on record as “no significant effect”. For the same compound, in assay [2] (ASA 5 mg/kg, N 10, Q 25/Q 75 -0.1/13.8, n.s., control 8.6), the Thrombus Hb content, Median was determined as 3.4 µmol. Moreover, the “thrombocytopenia inhibition, in words” value in assay [3] (ASA 0.5 mg/kg i.v.) is given as “weakly inhibiting”. For the same compound, the “% Thrombocytopenia Inhibition” value in assay [3] (ASA 0.5 mg/kg i.v., N 8, p less than 0.05 vs control) is recorded as 17 ± 3%. Also, the “change of thrombogenic ADP concentration, in words” value in assay [5] (ASA 10 mg/kg i.v.) is given as “does not change the thrombogenic ADP concentration”. The “Thrombogenic ADP Concentration, Increase” value in assay [5] (ASA 10 mg/kg, SEM ±0.13, n.s.) is given as 0.06.
